From patent US6737383B1, “Herbicidal oxadiazolidines” (priority 1999, dated 2004)

Assays:
blackgrass = test: Test B pre/postemergence blackgrass; type: in vivo, Alopecurus myosuroides
Outline: (§1)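 Test chemicals in a non-phytotoxic solvent mixture with surfactant were sprayed preemergence onto planted seeds and postemergence onto plants 2 to 18 cm tall (1- to 4-leaf stage). After twelve to sixteen days in a greenhouse, injury was visually rated against untreated controls from 0 (no effect) to 10 (complete control).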

surinam grass = test: Test B pre/postemergence surinam grass; type: in vivo, Brachiaria decumbens
Outline: as §1

cocklebur = test: Test B pre/postemergence cocklebur; type: in vivo, Xanthium strumarium
Outline: as §1

corn = test: Test B pre/postemergence corn; type: in vivo, Zea mays
Outline: as §1

crabgrass = test: Test B pre/postemergence crabgrass; type: in vivo, Digitaria sanguinalis
Outline: as §1

giant foxtail = test: Test B pre/postemergence giant foxtail; type: in vivo, Setaria faberii
Outline: as §1

morningglory = test: Test B pre/postemergence morningglory; type: in vivo, Ipomoea hederacea; settings: for Plant response rating, Morningglory: scale of 0 to 10 where 0 is no effect and 10 is complete control
Outline: as §1

pigweed = test: Test B pre/postemergence pigweed; type: in vivo, Amaranthus retroflexus; settings: for Plant response rating, Redroot pigweed: scale of 0 to 10 where 0 is no effect and 10 is complete control
Outline: as §1

rape = test: Test B pre/postemergence rape; type: in vivo, Brassica napus; settings: for Plant response rating, Rape: scale of 0 to 10 where 0 is no effect and 10 is complete control
Outline: as §1

soybean = test: Test B pre/postemergence soybean; type: in vivo, Glycine max; settings: for Plant response rating, Soybean: scale of 0 to 10 where 0 is no effect and 10 is complete control
Outline: as §1

sugar beet = test: Test B pre/postemergence sugar beet; type: in vivo, Beta vulgaris; settings: for Plant response rating, Sugarbeets: scale of 0 to 10 where 0 is no effect and 10 is complete control
Outline: as §1

velvetleaf = test: Test B pre/postemergence velvetleaf; type: in vivo, Abutilon theophrasti; settings: for Plant response rating, Velvetleaf: scale of 0 to 10 where 0 is no effect and 10 is complete control
Outline: as §1

wheat = test: Test B pre/postemergence wheat; type: in vivo, Triticum aestivum; settings: for Plant response rating, Wheat: scale of 0 to 10 where 0 is no effect and 10 is complete control
Outline: as §1

wild oat = test: Test B pre/postemergence wild oat; type: in vivo, Avena fatua; settings: for Plant response rating, Wild oats: scale of 0 to 10 where 0 is no effect and 10 is complete control
Outline: as §1

purple nutsedge = test: Test B pre/postemergence purple nutsedge; type: in vivo, Cyperus rotundus; settings: for Plant response rating, Nutsedge: scale of 0 to 10 where 0 is no effect and 10 is complete control
Outline: as §1

rice = test: Test B flood test rice; type: in vivo, Oryza sativa
Outline: (§2)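 Plants were grown to the 2-leaf stage before treatment with test chemical, then held in a greenhouse for twelve to sixteen days. Injury was visually rated against untreated controls on a 0–10 scale, where 0 is no effect and 10 is complete control.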

smallflower flatsedge = test: Test B flood test smallflower flatsedge; type: in vivo, Cyperus difformis
Outline: as §2

duck salad = test: Test B flood test duck salad; type: in vivo, Heteranthera limosa
Outline: as §2

bamyardgrass = test: Test B flood test barnyardgrass; type: in vivo, Echinochloa crus-galli
Outline: as §2

[1] = Postemergence, Rate 250 g/ha, scale 0 to 10
[2] = Postemergence, Rate 500 g/ha, scale of 0 to 10 where 0 is no effect and 10 is complete control
[3] = Preemergence, Rate 62 g/ha, scale of 0 to 10 where 0 is no effect and 10 is complete control
[4] = Preemergence, Rate 125 g/ha, scale of 0 to 10 where 0 is no effect and 10 is complete control
[5] = Preemergence, Rate 250 g/ha, scale 0 to 10, 0 is no effect, 10 is complete control
[6] = Preemergence, Rate 500 g/ha, scale 0 to 10, 0 is no effect, 10 is complete control
[7] = Rate 62 g/ha, Postemergence, scale 0 to 10 (0 no effect, 10 complete control)
[8] = Rate 125 g/ha, Postemergence, scale 0 to 10, 0 is no effect, 10 is complete control
[9] = Rate 62 g/ha, flood test species, Pre-emergence, visual evaluation after twelve to sixteen days
[10] = Rate 125 g/ha, under heading Pre-emergence, flood test species, visual evaluation after twelve to sixteen days
[11] = Rate 250 g/ha, Pre-emergence (flood test species), scale 0 to 10, 0 is no effect, 10 is complete control
[12] = Rate 500 g/ha, Pre-emergence, flood test species, scale 0 to 10 (0 no effect, 10 complete control)

COC(=O)C(C)n1c(=O)on(C(=O)N(c2ccc(F)cc2F)C(C)C)c1=O (stereo not shown) [Compound 463]
Blackgrass plant response rating (blackgrass; [1]): 0 | Blackgrass plant response rating (blackgrass; [2]): 2 | Plant response rating, Blackgrass (blackgrass; [3]): 0 | Plant response rating, Blackgrass (blackgrass; [4]): 0 | Blackgrass plant response rating (blackgrass; [5]): 2 | Blackgrass plant response rating (blackgrass; [6]): 4 | Blackgrass plant response rating (blackgrass; [7]): 0 | Blackgrass plant response rating (blackgrass; [8]): 0 | B. signalgrass plant response rating (surinam grass; Postemergence, Rate 250 g/ha, scale 0 to 10, 0 no effect, 10 complete control): 0 | B. signalgrass plant response rating (surinam grass; [2]): 0 | Plant response rating, B. signalgrass (surinam grass; [3]): 0 | Plant response rating, B. signalgrass (surinam grass; [4]): 0 | B. signalgrass plant response rating (surinam grass; [5]): 0 | B. signalgrass plant response rating (surinam grass; [6]): 2 | B. signalgrass plant response rating (surinam grass; [7]): 0 | B. signalgrass plant response rating (surinam grass; [8]): 0 | Cocklebur plant response rating (cocklebur; [1]): 0 | Cocklebur plant response rating (cocklebur; [2]): 2 | Plant response rating, Cocklebur (cocklebur; [3]): 0 | Plant response rating, Cocklebur (cocklebur; [4]): 0 | Cocklebur plant response rating (cocklebur; [5]): 0 | Cocklebur plant response rating (cocklebur; [6]): 0 | Cocklebur plant response rating (cocklebur; [7]): 0 | Cocklebur plant response rating (cocklebur; [8]): 0 | Corn plant response rating (corn; [1]): 0 | Corn plant response rating (corn; [2]): 0 | Plant response rating, Corn (corn; [3]): 0 | Plant response rating, Corn (corn; [4]): 0 | Corn plant response rating (corn; [5]): 0 | Corn plant response rating (corn; [6]): 0 | Corn plant response rating (corn; [7]): 0 | Corn plant response rating (corn; [8]): 0 | Crabgrass plant response rating (crabgrass; [1]): 2 | Crabgrass plant response rating (crabgrass; [2]): 2 | Plant response rating, Crabgrass (crabgrass; [3]): 0 | Plant response rating, Crabgrass (crabgrass; [4]): 0 | Crabgrass plant response rating (crabgrass; [5]): 2 | Crabgrass plant response rating (crabgrass; [6]): 2 | Crabgrass plant response rating (crabgrass; [7]): 0 | Crabgrass plant response rating (crabgrass; [8]): 0 | Giant foxtail plant response rating (giant foxtail; [1]): 6 | Giant foxtail plant response rating (giant foxtail; [2]): 6 | Plant response rating, Giant foxtail (giant foxtail; [3]): 0 | Plant response rating, Giant foxtail (giant foxtail; [4]): 0 | Giant foxtail plant response rating (giant foxtail; [5]): 3 | Giant foxtail plant response rating (giant foxtail; [6]): 10 | Giant foxtail plant response rating (giant foxtail; [7]): 0 | Giant foxtail plant response rating (giant foxtail; [8]): 0 | Morningglory plant response rating (morningglory; [1]): 2 | Plant response rating, Morningglory (morningglory; Preemergence, Rate 62 g/ha): 0 | Plant response rating, Morningglory (morningglory; Preemergence, Rate 125 g/ha): 0 | Morningglory plant response rating (morningglory; [5]): 0 | Morningglory plant response rating (morningglory; [6]): 0 | Morningglory plant response rating (morningglory; [7]): 0 | Morningglory plant response rating (morningglory; [8]): 0 | Redroot pigweed plant response rating (pigweed; [1]): 0 | Plant response rating, Redroot pigweed (pigweed; Preemergence, Rate 62 g/ha): 2 | Plant response rating, Redroot pigweed (pigweed; Preemergence, Rate 125 g/ha): 5 | Redroot pigweed plant response rating (pigweed; [5]): 10 | Redroot pigweed plant response rating (pigweed; [6]): 10 | Redroot pigweed plant response rating (pigweed; [7]): 0 | Redroot pigweed plant response rating (pigweed; [8]): 0 | Rape plant response rating (rape; [1]): 0 | Plant response rating, Rape (rape; Preemergence, Rate 62 g/ha): 0 | Plant response rating, Rape (rape; Preemergence, Rate 125 g/ha): 0 | Rape plant response rating (rape; [5]): 0 | Rape plant response rating (rape; [6]): 0 | Rape plant response rating (rape; [7]): 0 | Rape plant response rating (rape; [8]): 0 | Soybean plant response rating (soybean; [1]): 1 | Plant response rating, Soybean (soybean; Preemergence, Rate 62 g/ha): 0 | Plant response rating, Soybean (soybean; Preemergence, Rate 125 g/ha): 0 | Soybean plant response rating (soybean; [5]): 0 | Soybean plant response rating (soybean; [6]): 0 | Soybean plant response rating (soybean; [7]): 1 | Soybean plant response rating (soybean; [8]): 1 | Sugarbeets plant response rating (sugar beet; [1]): 0 | Plant response rating, Sugarbeets (sugar beet; Preemergence, Rate 62 g/ha): 0 | Plant response rating, Sugarbeets (sugar beet; Preemergence, Rate 125 g/ha): 0 | Sugarbeets plant response rating (sugar beet; [5]): 0 | Sugarbeets plant response rating (sugar beet; [6]): 0 | Sugarbeets plant response rating (sugar beet; [7]): 0 | Sugarbeets plant response rating (sugar beet; [8]): 0 | Velvetleaf plant response rating (velvetleaf; [1]): 0 | Plant response rating, Velvetleaf (velvetleaf; Preemergence, Rate 62 g/ha): 0 | Plant response rating, Velvetleaf (velvetleaf; Preemergence, Rate 125 g/ha): 0 | Velvetleaf plant response rating (velvetleaf; [5]): 0 | Velvetleaf plant response rating (velvetleaf; [6]): 2 | Velvetleaf plant response rating (velvetleaf; [7]): 0 | Velvetleaf plant response rating (velvetleaf; [8]): 0 | Wheat plant response rating (wheat; [1]): 0 | Plant response rating, Wheat (wheat; Preemergence, Rate 62 g/ha): 0 | Plant response rating, Wheat (wheat; Preemergence, Rate 125 g/ha): 0 | Wheat plant response rating (wheat; [5]): 0 | Wheat plant response rating (wheat; [6]): 0 | Wheat plant response rating (wheat; [7]): 0 | Wheat plant response rating (wheat; [8]): 0 | Wild oats plant response rating (wild oat; [1]): 0 | Plant response rating, Wild oats (wild oat; Preemergence, Rate 62 g/ha): 0 | Plant response rating, Wild oats (wild oat; Preemergence, Rate 125 g/ha): 0 | Wild oats plant response rating (wild oat; [5]): 0 | Wild oats plant response rating (wild oat; [6]): 0 | Wild oats plant response rating (wild oat; [7]): 0 | Wild oats plant response rating (wild oat; [8]): 0 | Nutsedge plant response rating (purple nutsedge; [1]): 0 | Plant response rating, Nutsedge (purple nutsedge; Preemergence, Rate 62 g/ha): 0 | Plant response rating, Nutsedge (purple nutsedge; Preemergence, Rate 125 g/ha): 0 | Nutsedge plant response rating (purple nutsedge; [5]): 0 | Nutsedge plant response rating (purple nutsedge; [6]): 0 | Nutsedge plant response rating (purple nutsedge; [7]): 0 | Nutsedge plant response rating (purple nutsedge; [8]): 0 | Plant response rating, Rice (0 to 10 scale, 0 is no effect, 10 is complete control) (rice; [9]): 0 | Rice plant response rating (0 to 10 scale, 0 is no effect, 10 is complete control) (rice; [10]): 0 | Rice plant response rating (rice; [11]): 0 | Rice plant response rating (rice; [12]): 0 | Plant response rating, S. Flatsedge (0 to 10 scale, 0 is no effect, 10 is complete control) (smallflower flatsedge; [9]): 0 | S. Flatsedge plant response rating (0 to 10 scale, 0 is no effect, 10 is complete control) (smallflower flatsedge; [10]): 0 | S. Flatsedge plant response rating (smallflower flatsedge; [11]): 0 | S. Flatsedge plant response rating (smallflower flatsedge; [12]): 0 | Plant response rating, Ducksalad (0 to 10 scale, 0 is no effect, 10 is complete control) (duck salad; [9]): 0 | Ducksalad plant response rating (0 to 10 scale, 0 is no effect, 10 is complete control) (duck salad; [10]): 0 | Ducksalad plant response rating (duck salad; [11]): 0 | Ducksalad plant response rating (duck salad; [12]): 0 | Plant response rating, Barnyardgrass (0 to 10 scale, 0 is no effect, 10 is complete control) (bamyardgrass; [9]): 0 | Barnyardgrass plant response rating (0 to 10 scale, 0 is no effect, 10 is complete control) (bamyardgrass; [10]): 0 | Barnyardgrass plant response rating (bamyardgrass; [11]): 0 | Barnyardgrass plant response rating (bamyardgrass; [12]): 0
